Patent US6248694A, “Plant growth regulator compositions” (BASF Aktiengesellschaft, priority 1999, dated 2001)

Columns and labels:
[1] = pH in water 1 wt. % concentration; format: physicochemical; conditions: 1 wt. % in water
Text: 5) pH in water 1 wt. % concentration 6.78

[2] = Hygroscopicity (relative water uptake at 50 and 60% relative humidity in air); format: physicochemical
Procedure: 4) Hygroscopicity of compound 1.1 in comparison to mepiquat chloride:
Both compounds were dried to a constant dry weight in vacuum at 40° C. 48 hours. Afterwards approx. 1 g samples (two series of 3 samples each and average values) were stored under 50 and 60% relative humidity in air for 2 and/or 4 weeks. The following results in relative water uptake (wt. % w/w) were found: […]

[3] = Hygroscopic nature, observation in words; format: physicochemical; conditions: solid dried at 50° C. under reduced pressure
[4] = Corrosion trial, test series 2 (DIN No. 52168, modified steel plates, 14 days)
Procedure: (§1) Comparison of (A) mepiquat chloride, with (B) a mixture of mepiquat chloride with disodium octaborate tetrahydrate (Solubor®), and (C) mepiquat pentaborate (compound 1.9) of example 13.
(§2) The tests of this example were conducted according to the method of DIN (Deutsche Industrie Norm) No. 52168, part 1 of November 1981, but using modified steel plates.
(§3) The corrosion tests were conducted on the three different formulations prepared as set forth below. Each formulation was tested with the different steel types set forth below.
(§4) The first formulation, referred to as "mepiquat chloride" in the tables below, was an 8.33% mepiquat chloride aqueous solution (by weight) prepared by diluting a 600 g/l mepiquat chloride preconcentrate. The second formulation, referred to as "mepiquat chloride plus borate salt" in the tables below, was prepared by adding 15 wt. % disodium octaborate tetrahydrate to the same 8.33% aqueous solution of mepiquat chloride as was used in the first formulation.
(§5) The third formulation, referred to as "mepiquat pentaborate"--in the tables below, was prepared from compound 1.9, example 13 by diluting with water to form a 12% mepiquat pentaborate (wt. %) aqueous solution.
(§6) All three abovementioned formulations contained equal amounts of the mepiquat cation.
(§7) One-half liter quantities of each formulation were placed in polyethylene plastic containers (10 cm×10 cm×12 cm (height)). Into each of the containers, two series of steel plate types--12×5 cm^2 (0.2 cm thickness) were inserted.
(§8) In modification of the mentioned DIN, the steel plates were prepared with an additional oxyacetylene torched area, approximately 5 to 7 mm large, horizontally in the middle of the steel plates.
(§9) The torched areas were placed below the solution's surface. (The aim of this modification of the test was to simulate a more serious corrosion and endangering situation.)
(§10) The position of the plates were such that approximately 1/3 of the plates were in air contact. After 14 days the steel plates were examined, washed and cleaned, dried and weighed according to the DIN method above.

[5] = Corrosion trial, test series 1 (DIN No. 52168, modified steel plates, 14 days)
Procedure: as §1, §2, §3, §4, §5, §6, §7, §8, §9, §10

[6] = 50% relative humidity in air, 2 weeks
[7] = 60% relative humidity in air, 2 weeks
[8] = 4 weeks at 50% relative humidity in air
[9] = 4 weeks at 60% relative humidity in air

Molecule	pH in water 1 wt. % concentration [1]	Hygroscopicity: water uptake [2, 8]	Hygroscopicity: water uptake [2, 9]	further results
C[N+]1(C)CCCCC1.O.O.O.O.O.O.OB(O)O.OB(O)O.OB(O)O.OB(O)O.OB(O)O.OB(O)O.OB(O)O.OB(O)O.OB(O)O.[Na+].[O-]B([O-])O [Compound 1.1, N,N-Dimethylpiperidinium sodium decaborate hexahydrate]	6.78			Relative water uptake [2, 6]: 4.1 wt. % w/w; Relative water uptake [2, 7]: 7.8 wt. % w/w
C[N+]1(C)CCCCC1 [N,N-dimethylpiperidiniumbicarbonate]				Hygroscopic nature of isolated product [3]: extremely hygroscopic
C[N+]1(C)CCCCC1.[Cl-] [mepiquat chloride, N,N-dimethylpiperidinium chloride, reference compound]				pH values, end ([4]; ST 13, end): 8.34; pH values, initial ([4]; ST 13, initial): 7.67; appearance of the resulting formulations ([4]; ST 13, test series 2): yellow to orange solution, cloudy, sedimentations; pH values, end ([5]; ST 37, end): 7.96; pH values, initial ([5]; ST 37, initial): 7.67; appearance of the resulting formulations ([5]; ST 37, test series 1): yellow to orange solution, cloudy, sedimentations; Relative water uptake [2, 6]: 52 wt. % w/w; Relative water uptake ([2]; 50% relative humidity in air, 4 weeks): 58 wt. % w/w; Relative water uptake [2, 7]: 71 wt. % w/w; Relative water uptake ([2]; 60% relative humidity in air, 4 weeks): 78 wt. % w/w
[Dimethylpiperidinium]2^2+ [B12 Na4 O21 ]^2-×20 H2 O [Compound 1.3]		13.6 wt. %	28.8 wt. %	
[Dimethylpiperidinium]2^2+ [B18 Na2 O29 ]^2-×8 H2 O [Compound 1.2]	7.4	5.2 wt. %	7.0 wt. %	
[Dimethylpiperidinium]^+ [B6.4 Na0.3 O10.3 ]^-×4 H2 O [Compound 1.7]		1.9 wt. %	4.1 wt. %	
[Dimethylpiperidinium]^+ [B8 (NH4)0.3 O12.7 ]^-×4 H2 O [Compound 1.5]	6.8	0.4 wt. %	0.6 wt. %	
[Dimethylpiperidinium]^+ [B9 Na0.9 O14.5 ]^-×6H2 O [Compound 1.6]	7.1	2.7 wt. %	9.0 wt. %	
